From patent US20250026769A1, “PAPD5 INHIBITORS AND METHODS OF USE THEREOF” (The Children's Medical Center Corporation, priority 2021, published 2025)
Read-outs that look alike come from different tables or passages of the source.

Tests used:
[1] = system: TERC 3′ end processing in DC patient iPSCs; assay: TERC 3′ end processing by RACE in DC patient / PARN-mutant iPSCs; format: cell-based, human; conditions: for minimal effective concentration: Homo sapiens, iPSC, patient iPSCs, concentration class at which activity is seen, read-out: iPSC-based RACE activity
In short: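 Activity binned by concentration giving effect in DC patient iPSCs: "+" at 1 μM, "++" above 1 nM and below 1 μM, "+++" below 1 nM; ND, not determined.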

[2] = system: telomere length in DC patient iPSCs; assay: telomere length / telomere elongation in DC patient iPSCs; format: cell-based, human; conditions: for concentration at which telomere elongation was observed: DC patient iPSCs, after 3-4 weeks of cell culture; for minimal effective concentration: Homo sapiens, iPSC, patient iPSCs, concentration class at which activity is seen, read-out: iPSC-based Telomere length
Protocol: Compound 266A had activity ˜2-logs higher in the in vitro RNA oligoadenylation assay compared to the parental compound cmpd. 1, approximating the activity of RG7834 (FIG. 7). […] 1. Compounds 295A and 296A had activity 2-3 logs higher in DC patient iPSCs, showing TERC maturation at 1 nM, similar to RG7834 (FIG. 6). […] Referring to Table 1D, “+” refers to activity at 1 μM, “++” refers to activity above 1 nM and below 1 μM, and “+++” refers to activity at <1 nM, “ND” refers to not determined.

rPAPD5 = biological target: T1, rPAPD5 (Homo sapiens, UniProt Q8NDF8); assay: differential scanning fluorimetry (DSF) binding and stabilization of rPAPD5; conditions: for ΔTm at 100 µM: 100 μM test compound, read-out: ΔTm at 100 μM; for ΔTm at 1 µM: 1 μM test compound (Table 2a), read-out: ΔTm at 1 μM
T1 construct: made in house
T1 sequence (Q8NDF8 68-698 isoform Q8NDF8-5 limits assumed): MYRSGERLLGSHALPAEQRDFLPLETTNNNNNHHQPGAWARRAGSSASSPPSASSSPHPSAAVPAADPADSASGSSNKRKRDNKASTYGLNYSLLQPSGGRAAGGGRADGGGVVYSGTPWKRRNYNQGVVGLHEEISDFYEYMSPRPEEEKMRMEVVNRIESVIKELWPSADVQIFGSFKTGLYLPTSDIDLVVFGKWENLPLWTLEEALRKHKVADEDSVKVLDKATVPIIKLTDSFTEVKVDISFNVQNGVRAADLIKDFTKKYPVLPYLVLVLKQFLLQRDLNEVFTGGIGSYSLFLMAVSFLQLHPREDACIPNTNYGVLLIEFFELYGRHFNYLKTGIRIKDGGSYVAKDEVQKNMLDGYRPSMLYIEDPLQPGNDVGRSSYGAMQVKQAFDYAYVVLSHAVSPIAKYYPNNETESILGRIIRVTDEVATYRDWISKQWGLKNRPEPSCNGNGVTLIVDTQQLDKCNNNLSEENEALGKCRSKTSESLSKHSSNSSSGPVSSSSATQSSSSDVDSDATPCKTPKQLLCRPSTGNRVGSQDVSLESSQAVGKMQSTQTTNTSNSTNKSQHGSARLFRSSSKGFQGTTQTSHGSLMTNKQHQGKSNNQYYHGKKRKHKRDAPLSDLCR
In short: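 Differential scanning fluorimetry was used to measure how test compounds bind and thermally stabilize rPAPD5. The reaction contained SYPRO orange dye diluted 1:5000 in […] of buffer with […], 25 mM Tris-HCl, 5 mM MgCl2 and 50 mM KCl. ΔTm was calculated relative to a DMSO control.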

[3] = system: hepatitis B surface antigen (HBSAg) from HepG2.2.15 cells, a hepatitis B virus-expressing cell line; assay: HBsAg ELISA in supernatant of HepG2.2.15 cells; format: cell-based; conditions: HepG2.2.15, 96 h
Protocol: HepG2.2.15 cells, a hepatitis B virus-expressing cell line (Sells, M. A. et al., PNAS, 1987), were plated at 50,000 cells/well in DMEM/F12 media (Gibco) with 10% fetal bovine serum (Omega Scientific) in a 24-well or 96-well plate (Corning), in 2-3 replicates for each test compound/concentration plus controls, and incubated in a humidified 5% CO2 chamber at 37° C. The next day, media was aspirated, cells were washed once with phosphate buffered saline, pH7.4 (Gibco), and 1 mL DMEM/12 media was replaced. Test compounds were added in 3-fold dilutions from up to 100 μM down to 333 pM, with vehicle (dimethylsulfoxide (Sigma)) as a control. After four days of culture in a humidified 5% CO2 chamber at 37° C., plates were spun down in a centrifuge at 300 g for 10 minutes at room temperature. Supernatant from each well was collected and either frozen at −20° C. or used directly for quantitation of hepatitis B surface antigen (HBSAg) in an enzyme-linked immunosorbent assay (ELISA). The supernatant was tested using the HBSAg ELISA kit (Abnova Cat. No KA0286) per the manufacturer's instructions. Results of replicates were averaged and nonlinear curve fitting was used to determine the half maximal inhibitory concentration (IC50) for each test compound.

[4] = system: TERC 3′ end processing in primary CD34+ human hematopoietic stem and progenitor cells (HSPCs); assay: TERC 3′ end processing (RACE) in CRISPR/Cas9-engineered PARN-deficient primary CD34+ HSPCs; format: cell-based; conditions: for TERC 3′ end processing by RACE at 100 nM: day 5 (FIG. 40B); for TERC 3′ end processing by RACE at 1 μM: day 5 (FIG. 40A)
Description: Example 167—Restoration of TERC 3′ end processing in primary CD34+ human hematopoietic stem and progenitor cells (HSPCs). To determine the efficacy of exemplified compounds in a disease-relevant stem cell population, we employed a highly-efficient CRISPR-Cas9 ribonucleoprotein transduction strategy to disrupt the PARN gene in primary human CD34+ hematopoietic stem and progenitor cells (HSPCs), or the control locus AAVS1. FIGS. 40A and 40B show extended TERC forms in CRISPR-Cas9 engineered HSPCs deficient in PARN.

[5] = 10 μM test compound (Table 2a), read-out: ΔTm at 10 μM
[6] = 10 μM test compound, shift vs DMSO control, read-out: ΔTm (Table 2, starred: the compound was tested at 10 μM)

O=C(O)c1cc(Cl)ccc1Nc1c(S(=O)(=O)N2CCOCC2)cnc2ccc(Cl)cc12 [Compound 266A, 5-chloro-2-[(6-chloro-3-morpholinosulfonyl-4-quinolyl)amino]benzoic acid]
activity in DC patient iPSCs (TERC maturation) relative to cmpd. 1 ([1]; DC patient iPSCs, higher / more potent than cmpd. 1): 1-2 logs
concentration at which telomere elongation was observed [2]: 10 nM
ΔTm at 100 µM (rPAPD5; shift vs DMSO control): > 5 °C
IC50 [3]: 0.102 µM

Cl.O=C(O)c1cc(Cl)ccc1Nc1c(-c2ncco2)cnc2ccc(Cl)cc12 [Compound 295A, 5-chloro-2-[(6-chloro-3-oxazol-2-yl-4-quinolyl)amino]benzoic acid]
concentration showing maturation of TERC 3′ end processing by RACE ([1]; DC patient iPSCs): 1 nM
concentration at which telomere elongation was observed [2]: 1 nM
ΔTm at 100 µM (rPAPD5; shift vs DMSO control): > 5 °C
IC50 [3]: 0.318 µM

O=C(O)c1cc(Cl)ccc1Nc1c(N2CCC(F)(F)CC2)cnc2ccc(Cl)cc12 [Compound 340A, 5-chloro-2-[[6-chloro-3-(4,4-difluoro-1-piperidyl)-4-quinolyl]amino]benzoic acid]
minimal effective concentration [1]: < 0.001 µM
minimal effective concentration [2]: < 0.001 µM
ΔTm at 1 µM (rPAPD5): > 5 °C
ΔTm at 10 µM (rPAPD5; [5]): > 5 °C
ΔTm at 10 µM (rPAPD5; [6]): > 5 °C
IC50 [3]: 0.05 µM
TERC 3′ end processing by RACE at 100 nM [4]: maturation of TERC 3′ end processing
TERC 3′ end processing by RACE at 1 μM [4]: maturation of TERC 3′ end processing

O=C(O)c1cc(Cl)ccc1Nc1c(C2=CCSCC2)cnc2ccc(Cl)cc12 [Compound 342A, 5-chloro-2-[[6-chloro-3-(3,6-dihydro-2H-thiopyran-4-yl)-4-quinolyl]amino]benzoic acid]
minimal effective concentration [1]: < 0.001 µM
minimal effective concentration [2]: < 0.001 µM
ΔTm at 1 µM (rPAPD5): > 5 °C
ΔTm at 10 µM (rPAPD5; [5]): > 5 °C
ΔTm at 10 µM (rPAPD5; [6]): > 5 °C
IC50 [3]: 0.821 µM

O=C(O)c1cc(Cl)ccc1Nc1c(C2CCC(F)(F)CC2)cnc2ccc(Cl)cc12 [Compound 343A, 5-chloro-2-[[6-chloro-3-(4,4-difluorocyclohexyl)-4-quinolyl]amino]benzoic acid]
minimal effective concentration [1]: < 0.001 µM
minimal effective concentration [2]: < 0.001 µM
ΔTm at 1 µM (rPAPD5): > 5 °C
ΔTm at 10 µM (rPAPD5; [5]): > 5 °C
ΔTm at 10 µM (rPAPD5; [6]): > 5 °C
IC50 [3]: 0.086 µM

O=C(O)c1cc(Cl)ccc1Nc1c(S(=O)(=O)N2CCC(F)(F)CC2)cnc2ccc(Cl)cc12 [Compound 345A, 5-chloro-2-[[6-chloro-3-[(4,4-difluoro-1-piperidyl)sulfonyl]-4-quinolyl]amino]benzoic acid]
minimal effective concentration [1]: 0.001 to 1 µM
minimal effective concentration [2]: < 0.001 µM
ΔTm at 1 µM (rPAPD5): > 5 °C
ΔTm at 10 µM (rPAPD5; [5]): > 5 °C
ΔTm at 100 µM (rPAPD5; shift vs DMSO control): > 5 °C
IC50 [3]: 0.523 µM

O=C(O)c1cc(Cl)ccc1Nc1c(S(=O)(=O)N2CCSCC2)cnc2ccc(Cl)cc12 [Compound 349A, 5-chloro-2-[(6-chloro-3-thiomorpholinosulfonyl-4-quinolyl)amino]benzoic acid]
minimal effective concentration [1]: 0.001 to 1 µM
minimal effective concentration [2]: < 0.001 µM
ΔTm at 1 µM (rPAPD5): > 5 °C
ΔTm at 10 µM (rPAPD5; [5]): > 5 °C
ΔTm at 100 µM (rPAPD5; shift vs DMSO control): > 5 °C
IC50 [3]: 0.16 µM

O=C(O)c1cc(Cl)ccc1Nc1c(-c2cnco2)cnc2ccc(Cl)cc12 [Compound 353A, 5-chloro-2-[(6-chloro-3-oxazol-5-yl-4-quinolyl)amino]benzoic acid]
minimal effective concentration [1]: 0.001 to 1 µM
minimal effective concentration [2]: < 0.001 µM
ΔTm at 1 µM (rPAPD5): 1 to 5 °C
ΔTm at 10 µM (rPAPD5; [5]): > 5 °C
ΔTm at 100 µM (rPAPD5; shift vs DMSO control): > 5 °C
IC50 [3]: 0.438 µM

CN1CCN(c2cnc3ccc(Cl)cc3c2Nc2ccc(Cl)cc2C(=O)O)CC1 [Compound 361A, 5-chloro-2-[[6-chloro-3-(4-methylpiperazin-1-yl)-4-quinolyl]amino]benzoic acid]
minimal effective concentration [1]: 0.001 to 1 µM
minimal effective concentration [2]: < 0.001 µM
ΔTm at 1 µM (rPAPD5): > 5 °C
ΔTm at 10 µM (rPAPD5; [5]): > 5 °C
ΔTm at 100 µM (rPAPD5; shift vs DMSO control): > 5 °C
IC50 [3]: 0.311 µM

O=C(O)c1cc(Cl)ccc1Nc1c(CN2CCOCC2)cnc2ccc(Cl)cc12 [Compound 371A, 5-chloro-2-[[6-chloro-3-(morpholinomethyl)-4-quinolyl]amino]benzoic acid]
minimal effective concentration [1]: 0.001 to 1 µM
minimal effective concentration [2]: < 0.001 µM
ΔTm at 1 µM (rPAPD5): > 5 °C
ΔTm at 10 µM (rPAPD5; [5]): > 5 °C
ΔTm at 100 µM (rPAPD5; shift vs DMSO control): > 5 °C
IC50 [3]: 0.145 µM
TERC 3′ end processing by RACE at 100 nM [4]: maturation of TERC 3′ end processing
TERC 3′ end processing by RACE at 1 μM [4]: maturation of TERC 3′ end processing

O=C(O)c1cc(Cl)ccc1Nc1c(-c2ccncc2)cnc2ccc(Cl)cc12 [Compound 391A, 5-chloro-2-[[6-chloro-3-(4-pyridyl)-4-quinolyl]amino]benzoic acid]
minimal effective concentration [1]: 0.001 to 1 µM
minimal effective concentration [2]: < 0.001 µM
ΔTm at 1 µM (rPAPD5): 1 to 5 °C
ΔTm at 10 µM (rPAPD5; [5]): > 5 °C
ΔTm at 100 µM (rPAPD5; shift vs DMSO control): > 5 °C
IC50 [3]: 0.735 µM

O=C(O)c1cc(Cl)ccc1Nc1c(C2CCC(=NO)CC2)cnc2ccc(Cl)cc12 (stereo not shown) [Compound 396A, 5-chloro-2-[[6-chloro-3-(4-hydroxyiminocyclohexyl)-4-quinolyl]amino]benzoic acid]
minimal effective concentration [1]: < 0.001 µM
minimal effective concentration [2]: < 0.001 µM
ΔTm at 1 µM (rPAPD5): < 1 °C
ΔTm at 10 µM (rPAPD5; [5]): > 5 °C
ΔTm at 100 µM (rPAPD5; shift vs DMSO control): > 5 °C
TERC 3′ end processing by RACE at 100 nM [4]: maturation of TERC 3′ end processing
TERC 3′ end processing by RACE at 1 μM [4]: maturation of TERC 3′ end processing

COc1cc(Cl)cc2c(Nc3ccc(Cl)cc3C(=O)O)c(S(=O)(=O)N3CCSCC3)cnc12 [Compound 418A, 5-chloro-2-[(6-chloro-8-methoxy-3-thiomorpholinosulfonyl-4-quinolyl)amino]benzoic acid]
minimal effective concentration [1]: < 0.001 µM
minimal effective concentration [2]: < 0.001 µM
ΔTm at 1 µM (rPAPD5): > 5 °C
ΔTm at 10 µM (rPAPD5; [5]): > 5 °C
ΔTm at 100 µM (rPAPD5; shift vs DMSO control): > 5 °C
IC50 [3]: 0.112 µM

O=C(O)c1cc(Cl)ccc1Nc1c(S(=O)(=O)N2CCSCC2)cnc2c(F)cc(Cl)cc12 [Compound 421A, 5-chloro-2-[(6-chloro-8-fluoro-3-thiomorpholinosulfonyl-4-quinolyl)amino]benzoic acid]
minimal effective concentration [1]: < 0.001 µM
minimal effective concentration [2]: < 0.001 µM
ΔTm at 1 µM (rPAPD5): > 5 °C
ΔTm at 10 µM (rPAPD5; [5]): > 5 °C
ΔTm at 100 µM (rPAPD5; shift vs DMSO control): > 5 °C
TERC 3′ end processing by RACE at 1 μM [4]: maturation of TERC 3′ end processing
